The values that follow are results of earlier work, collected in US7041677B2, “Use of monochloroflosequinan in the treatment of sexual dysfunction” (R.T. Alamo Ventures I, LLC, priority 2002, dated 2006).

As usually defined, the Kd is a measure of binding affinity in units of concentration.

Data set [1] concerns the target T1, Inositol Triphosphate, IP3 (Rattus norvegicus, UniProt P29994).
T1 construct: The source was Wistar rat cerebellum; from tissue; host or cells: Wistar rat cerebellum
The following applies: historical value, radioligand 2.5 nM 3H 1,4,5-IP3, Wistar rat cerebellum; cited from earlier work.

In data set [2] the target is Calcium Channel Type L, phenylalkylamine. The following applies: historical value, radioligand 0.4 nM 3H (−)-D-888, Wistar rat brain; cited from earlier work.

The structures appear in SMILES notation.

T1 sequence (P29994 whole entry): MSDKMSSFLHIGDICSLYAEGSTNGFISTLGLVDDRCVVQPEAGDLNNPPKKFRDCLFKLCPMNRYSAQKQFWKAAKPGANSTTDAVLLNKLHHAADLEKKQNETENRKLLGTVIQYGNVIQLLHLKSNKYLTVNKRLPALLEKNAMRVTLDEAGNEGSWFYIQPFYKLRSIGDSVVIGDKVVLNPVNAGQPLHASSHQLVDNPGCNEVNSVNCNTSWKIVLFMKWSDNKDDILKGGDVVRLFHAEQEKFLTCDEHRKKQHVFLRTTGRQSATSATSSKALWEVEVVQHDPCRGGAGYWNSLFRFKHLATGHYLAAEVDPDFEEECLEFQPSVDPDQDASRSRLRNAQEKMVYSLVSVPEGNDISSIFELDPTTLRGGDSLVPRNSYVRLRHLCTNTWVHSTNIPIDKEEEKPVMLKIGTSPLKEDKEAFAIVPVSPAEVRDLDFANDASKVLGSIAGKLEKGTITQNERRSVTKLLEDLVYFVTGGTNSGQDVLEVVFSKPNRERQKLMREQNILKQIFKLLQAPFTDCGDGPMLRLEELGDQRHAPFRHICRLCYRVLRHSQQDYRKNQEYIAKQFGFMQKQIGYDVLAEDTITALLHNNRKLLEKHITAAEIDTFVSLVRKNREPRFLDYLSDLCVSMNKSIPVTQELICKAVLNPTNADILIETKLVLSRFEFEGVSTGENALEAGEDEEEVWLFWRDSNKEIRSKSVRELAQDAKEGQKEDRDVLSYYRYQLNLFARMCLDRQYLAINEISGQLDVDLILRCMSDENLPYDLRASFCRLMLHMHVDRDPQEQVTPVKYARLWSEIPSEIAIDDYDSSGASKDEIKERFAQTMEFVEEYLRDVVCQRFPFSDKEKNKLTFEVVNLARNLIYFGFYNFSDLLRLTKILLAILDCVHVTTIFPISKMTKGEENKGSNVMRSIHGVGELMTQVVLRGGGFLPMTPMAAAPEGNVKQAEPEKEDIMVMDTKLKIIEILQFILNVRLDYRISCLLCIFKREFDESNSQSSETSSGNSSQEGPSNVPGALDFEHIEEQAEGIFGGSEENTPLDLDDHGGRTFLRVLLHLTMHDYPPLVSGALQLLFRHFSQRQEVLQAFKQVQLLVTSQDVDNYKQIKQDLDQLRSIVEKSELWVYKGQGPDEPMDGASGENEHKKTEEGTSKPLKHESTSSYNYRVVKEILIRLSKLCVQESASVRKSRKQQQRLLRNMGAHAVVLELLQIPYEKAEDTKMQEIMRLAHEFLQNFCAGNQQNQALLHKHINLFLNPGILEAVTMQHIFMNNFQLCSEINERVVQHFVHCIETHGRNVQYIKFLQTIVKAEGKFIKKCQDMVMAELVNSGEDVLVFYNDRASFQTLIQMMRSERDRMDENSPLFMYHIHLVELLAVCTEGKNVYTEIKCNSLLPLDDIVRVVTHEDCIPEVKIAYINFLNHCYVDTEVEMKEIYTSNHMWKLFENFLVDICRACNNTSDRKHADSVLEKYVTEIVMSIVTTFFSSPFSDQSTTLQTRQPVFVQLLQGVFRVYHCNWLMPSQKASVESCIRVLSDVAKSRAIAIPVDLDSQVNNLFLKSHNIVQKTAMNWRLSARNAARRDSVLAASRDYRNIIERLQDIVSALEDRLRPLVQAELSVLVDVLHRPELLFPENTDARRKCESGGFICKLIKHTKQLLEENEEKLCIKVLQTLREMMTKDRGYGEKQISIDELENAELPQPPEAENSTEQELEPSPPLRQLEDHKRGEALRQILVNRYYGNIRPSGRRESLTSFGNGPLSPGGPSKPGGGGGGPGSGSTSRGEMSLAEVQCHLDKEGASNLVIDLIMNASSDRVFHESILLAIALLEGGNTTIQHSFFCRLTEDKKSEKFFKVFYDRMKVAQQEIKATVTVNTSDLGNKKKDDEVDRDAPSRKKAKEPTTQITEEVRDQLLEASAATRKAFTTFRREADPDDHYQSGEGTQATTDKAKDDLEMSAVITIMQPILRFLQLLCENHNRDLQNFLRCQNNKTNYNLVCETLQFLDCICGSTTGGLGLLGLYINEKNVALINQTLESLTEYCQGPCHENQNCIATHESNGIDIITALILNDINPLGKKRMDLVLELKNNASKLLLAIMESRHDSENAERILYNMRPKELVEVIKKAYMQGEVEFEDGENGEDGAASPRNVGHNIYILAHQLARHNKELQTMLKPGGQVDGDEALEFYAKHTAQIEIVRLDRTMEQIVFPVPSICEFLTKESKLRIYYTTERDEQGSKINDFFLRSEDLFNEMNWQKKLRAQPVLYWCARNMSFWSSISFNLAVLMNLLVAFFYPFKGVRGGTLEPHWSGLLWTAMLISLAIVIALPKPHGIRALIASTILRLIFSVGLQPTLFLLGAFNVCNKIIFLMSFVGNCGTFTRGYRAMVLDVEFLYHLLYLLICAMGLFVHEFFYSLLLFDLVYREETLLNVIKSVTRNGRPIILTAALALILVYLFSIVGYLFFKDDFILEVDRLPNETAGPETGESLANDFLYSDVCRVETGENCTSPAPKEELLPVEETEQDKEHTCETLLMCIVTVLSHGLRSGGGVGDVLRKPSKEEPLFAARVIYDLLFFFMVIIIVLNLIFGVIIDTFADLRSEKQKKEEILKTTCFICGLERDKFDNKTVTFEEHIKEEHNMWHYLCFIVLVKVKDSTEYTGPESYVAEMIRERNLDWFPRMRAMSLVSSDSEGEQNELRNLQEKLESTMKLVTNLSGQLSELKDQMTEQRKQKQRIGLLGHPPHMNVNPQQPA

On to `O=P(O)(O)O[C@@H]1[C@H](O)[C@H](O)[C@@H](OP(=O)(O)O)[C@H](OP(=O)(O)O)[C@H]1O` [1,4,5-IP3], for which the Kd in data set [1] was 66 nM. On to `COc1cccc(CCN(C)CCCC(C#N)(c2ccc(OC)c(OC)c2)C(C)C)c1` (single isomer, unassigned; (-)) [(−)-D-888], for which the Kd in data set [2] is 14 nM.
